Reference: PMC11211886 (Frontiers in Pharmacology, 2024)
Where two headings read alike, the source gives them in different places.

What was measured:
[1] = Caco-2 bidirectional transport permeability; assay type: in vitro ADME, human; conditions: human
Procedure: (§1) The passage number of cells used in this study was 39. Non-specific binding to the device surfaces and the aqueous solubility of test compounds were tested before the transport experiment. […] The integrity of the monolayer was estimated by measuring transepithelial electrical resistance (TEER). Only the monolayers with TEER over 150 Ω were used for the studies.

Caco-2 cell monolayers = assay: Caco-2 bidirectional transport permeability; assay type: in vitro ADME, human
Procedure: as §1

[2] = Metabolic stability in monkey liver microsomes; assay type: in vitro ADME
Procedure: FMO was deactivated by heating liver microsomes at 45°C for 5 min. […] The natural logarithm of the percentage of the drug remaining was plotted against the incubation time, and the slope of the linear regression (-k) was converted to in vitro half-lives (t1/2) using the following equation: […] (1) metabolic clearance is the major mechanism of clearance; (2) liver is the major organ of clearance; and (3) oxidation is the major metabolic pathway. CLint,in vitro=k / Cmicrosomes , Scaled CLint,in vivo=CLint,in vitro×microsomes yield×liver weight, where Cmicrosomes means the experimental protein concentration (0.5 mg/mL) in the incubation system. […] Then, the scaled in vivo intrinsic clearance was used to predict the systemic clearance (equal to the hepatic clearance) using the well-stirred venous equilibration model ([Houston, 1994]).

CYP1A2 mRNA = assay: in vitro; conditions: human; for EC50 at 48 h: EC50, CYP1A2 expression
Procedure: (§2) […] […] […] Enzyme activity for each CYP isoform was reported as a fold change over vehicle control and the percent of positive control (detailed calculation in Supplementary 1.1). Hepatocytes were harvested with a lysis buffer from RNeasy 96 Kit (Qiagen Inc., Germantown, MD, USA) to isolate RNA, which was analyzed by real-time quantitative polymerase chain reaction (RT-PCR). […] Emax (the maximal observed induction) and EC50 (the concentration that supports half-maximal induction) were estimated by non-linear regression of fold increase in CYP mRNA expression versus concentration plots.
(§3) % of positive control = [(fold change in treated sample)-1] / [(fold change in positive control)-1] × 100
(§4) Based on the gene expression, a minimum of 4-fold increase of positive control compared to vehicle control, a minimum of 2-fold increase of the test article compared vehicle control and increased in a concentration-dependent manner was considered as the cutoff for a positive signal in in vitro induction assay.

CYP2C8 mRNA = assay: CYP induction in human hepatocytes, CYP2C8 mRNA (RT-PCR)
Procedure: as §2, §3, §4

[3] = Tissue distribution in SD rats after oral dose; parameters: species or system SD rat; conditions: in vivo
Procedure: After blood collection, the rats were sacrificed, and 18 tissues, namely, brain, breast, skin, fat, testis, ovary, bladder, pancreas, skeletal muscle, heart, lung, kidney, liver, stomach, small intestine, colon, spleen, and spinal cord, were removed from the rats at designated time points. These tissues were washed with saline and dried with filter paper. […] (Cheongju-si, Korea). […] The weight of the collected samples was recorded. Samples were stored in a −20°C freezer until analysis.

CYP2C9 mRNA = assay: CYP induction in human hepatocytes, CYP2C9 mRNA (RT-PCR)
Procedure: as §2, §3, §4

[4] = male, ICR, mouse, in vivo, iv
plasma proteins = assay: Plasma protein binding (RED), rat plasma; assay type: in vitro ADME
Procedure: The plate containing plasma and buffer was equilibrated for 6 h in a 37°C water shaking bath. After incubation, aliquots of buffer and plasma (20 µL) on both sides were collected and precipitated using organic solvents. […] The post-dialysis recovery of amdizalisib was also measured.

CYP2C8 = assay: CYP induction in human hepatocytes, CYP2C8 enzyme activity
Procedure: as §2
(§5) The fold of vehicle control and the percent of positive control were calculated with the formulas below:
(§6) Fold of vehicle control = CYPs activity of test compound (or positive control) treated sample / CYPs activity of vehicle control treated sample
as §3
(§7) Based on the enzyme activity, a minimum of 2-fold increase compared to vehicle control for the positive control and ≥40% of the positive control for the test article was considered as the cutoff for a positive signal in in vitro induction assay.

CYP2C9 = assay: CYP induction in human hepatocytes, CYP2C9 enzyme activity
Procedure: as §2, §5, §6, §3, §7

C[C@H](Nc1ncnc(N)c1C#N)c1cc2ncc(Cl)n2nc1-c1ccccc1 [Amdizalisib]
Papp A→B at 30 min, 10 µM [1]: 45.7 ×10⁻⁶ cm/s
Papp A→B at 60 min, 5 µM [1]: 38.5 ×10⁻⁶ cm/s
Papp A→B at 60 min, 10 µM [1]: 39.9 ×10⁻⁶ cm/s
Papp A→B at 60 min, 20 µM [1]: 40.9 ×10⁻⁶ cm/s
Papp A→B at 60 min, 40 µM [1]: 36.3 ×10⁻⁶ cm/s
Papp A→B at 60 min, 60 µM [1]: 42.2 ×10⁻⁶ cm/s
Papp A→B at 90 min, 10 µM [1]: 38.9 ×10⁻⁶ cm/s
Papp A→B at 120 min, 10 µM [1]: 36.9 ×10⁻⁶ cm/s
Papp A→B at 150 min, 10 µM [1]: 37.1 ×10⁻⁶ cm/s
Papp B→A at 30 min, 10 µM [1]: 69.5 ×10⁻⁶ cm/s
Papp B→A at 60 min, 5 µM [1]: 50.4 ×10⁻⁶ cm/s
Papp B→A at 60 min, 20 µM [1]: 52.3 ×10⁻⁶ cm/s
Papp B→A at 60 min, 40 µM [1]: 45.4 ×10⁻⁶ cm/s
Papp B→A at 60 min, 60 µM [1]: 47.9 ×10⁻⁶ cm/s
Papp B→A at 60 min, 80 µM [1]: 45.4 ×10⁻⁶ cm/s
Papp B→A at 90 min, 10 µM [1]: 57.1 ×10⁻⁶ cm/s
Papp B→A at 120 min, 10 µM [1]: 56 ×10⁻⁶ cm/s
Papp B→A at 150 min, 10 µM [1]: 55.6 ×10⁻⁶ cm/s
Papp A→B at 60 min, 80 µM ([1]; substrate 80 µM, 60 min): 47.7 ×10⁻⁶ cm/s
Transporter substrate (Caco-2 cell monolayers): Not a substrate of P-gp and BCRP
CLint scaled at 1 µM ([2]; female, monkey, microsomes, pH 7.4, Predicted CL int, iv vivo): 19.2 mL/min/kg
half-life at 1 µM ([2]; female, monkey, microsomes, pH 7.4, in vitro t1/2): 1.63 h
Predicted CL sys ([2]; male monkey liver microsomes, FMO deactivation): 15.9 mL/min/kg
CLint scaled at 1 µM ([2]; male, monkey, microsomes, pH 7.4, Predicted CL int, iv vivo): 30 mL/min/kg
half-life at 1 µM ([2]; male, monkey, microsomes, pH 7.4, in vitro t1/2): 1.04 h
CLint scaled at 1 µM ([2]; pH 7.4, female monkey liver microsomes, FMO deactivation, read-out: Predicted CL int, iv vivo): 18.1 mL/min/kg
half-life at 1 µM ([2]; pH 7.4, female monkey liver microsomes, FMO deactivation, read-out: in vitro t1/2): 1.72 h
induction on CYP1A2 mRNA expression (CYP1A2 mRNA; both, hepatocytes, 48 h, 20 µM): >2-fold induction on CYP1A2, 2B6, 3A4, 2C9 mRNA expression at 20 uM
EC50 at 48 h (CYP1A2 mRNA; female): 9.57 µM
Gene expression Percent of PC (%) (CYP1A2 mRNA; male, 48 h, 1 µM): 3.60%
Gene expression Percent of PC (%) (CYP1A2 mRNA; male, 48 h, 3 µM): 0.30%
Gene expression Percent of PC (%) (CYP1A2 mRNA; male, 48 h, 10 µM): 10.7%
Gene expression Percent of PC (%) (CYP1A2 mRNA; male, 48 h, 20 µM): 8.20%
Gene expression Percent of PC (%) (CYP1A2 mRNA; male, 48 h, 30 µM): 14.2%
EC50 at 48 h (CYP1A2 mRNA; male): 7.73 µM
Gene expression Percent of PC (%) (CYP2C8 mRNA; CYP 2C8, donor four, 3 µM): 14.5%
Gene expression Percent of PC (%) (CYP2C8 mRNA; female, human, 48 h, 0.3 µM): 7.24%
Gene expression Percent of PC (%) (CYP2C8 mRNA; female, human, 48 h, 3 µM): 13.5%
Gene expression Percent of PC (%) (CYP2C8 mRNA; female, human, 48 h, 20 µM): 3.97%
Gene expression Percent of PC (%) (CYP2C8 mRNA; male, human, 48 h, 3 µM): 9.01%
half-life ([3]; SD, female rat, PO 5 mg/kg, pancreas): 3.38 h
half-life ([3]; SD, male rat, PO 5 mg/kg, liver): 1.76 h
Kp ([3]; both sexes, SD, rat, po, 5 mg/kg, exposure in the intestines versus plasma): 3 to 6
AUC(0-t) ([3]; female, SD, rat, po, 5 mg/kg): 11400 ng·h/mL
Cmax ([3]; female, SD, rat, po, 5 mg/kg): 993 ng/mL
Kp ([3]; female, SD, rat, po, 5 mg/kg, female rat, PO 5 mg/kg, colon, read-out: AUC0-t ratio of tissue/plasma): 1.52
Cmax ([3]; female, Sprague-Dawley, rat, po, 5 mg/kg): 6950 ng/g
AUC(0-t) ([3]; male, SD, rat, po, 5 mg/kg): 1380 ng·h/mL
Cmax ([3]; male, SD, rat, po, 5 mg/kg): 394 ng/mL
Tmax ([3]; male, SD, rat, po, 5 mg/kg, Tmax): 1 h
Kp ([3]; male, SD, rat, po, 5 mg/kg, male rat, PO 5 mg/kg, bladder, read-out: AUC0-t ratio of tissue/plasma): 1.08
Kp ([3]; male, SD, rat, po, 5 mg/kg, male rat, PO 5 mg/kg, pancreas, read-out: AUC0-t ratio of tissue/plasma): 3.97
Cmax ([3]; male, Sprague-Dawley, rat, po, 5 mg/kg): 5080 ng/g
induction on CYP2C9 mRNA expression (CYP2C9 mRNA; 20 uM): >2-fold induction on CYP1A2, 2B6, 3A4, 2C9 mRNA expression at 20 uM
Gene expression Percent of PC (%) (CYP2C9 mRNA; CYP2C9, donor eight, 0.3 µM): 5.23%
Gene expression Percent of PC (%) (CYP2C9 mRNA; CYP2C9, donor eight, 3 µM): 20.0%
Gene expression Percent of PC (%) (CYP2C9 mRNA; CYP2C9, donor eight, 20 µM): 54.5%
Gene expression Percent of PC (%) (CYP2C9 mRNA; CYP2C9, donor four, 0.3 µM): 16.1%
Gene expression Percent of PC (%) (CYP2C9 mRNA; CYP2C9, donor four, 3 µM): 28.8%
Gene expression Percent of PC (%) (CYP2C9 mRNA; CYP2C9, donor four, 20 µM): 81.6%
Gene expression Percent of PC (%) (CYP2C9 mRNA; CYP2C9, donor one, 0.3 µM): 12.7%
Gene expression Percent of PC (%) (CYP2C9 mRNA; CYP2C9, donor one, 3 µM): 18.0%
Gene expression Percent of PC (%) (CYP2C9 mRNA; CYP2C9, donor one, 20 µM): 59.0%
CL as % of the hepatic blood flow [4]: 16.3%
Binding fraction to plasma proteins, Rat (plasma proteins; 0.1 µM): 87.2 ± 1.72%
Binding fraction to plasma proteins, Rat (plasma proteins; 1 µM): 90.2 ± 0.65%
Binding fraction to plasma proteins, Rat (plasma proteins; 20 µM): 89.9 ± 0.37%
Enzyme activity Percent of PC (%) (CYP2C8; CYP 2C8, donor one, 3 µM): 10.8%
Enzyme activity Percent of PC (%) (CYP2C8; female, human, 48 h, 0.3 µM): 5.21%
Enzyme activity Percent of PC (%) (CYP2C8; female, human, 48 h, 20 µM): -19.4%
Enzyme activity Percent of PC (%) (CYP2C9; CYP2C9, donor eight, 20 µM): 14.5%
Enzyme activity Percent of PC (%) (CYP2C9; female, human, 48 h, 0.3 µM): 5.63%
Enzyme activity Percent of PC (%) (CYP2C9; female, human, 48 h, 3 µM): 30.0%
Enzyme activity Percent of PC (%) (CYP2C9; female, human, 48 h, 20 µM): 38.1%
Enzyme activity Percent of PC (%) (CYP2C9; male, human, 48 h, 20 µM): 36.5%
